Reference: ChEMBL document CHEMBL2417463, “Synthesis and identification of new flavonoids targeting liver X receptor β involved pathway as potential facilitators of Aβ clearance with reduced lipid accumulation” (J Med Chem, 2013)
Calls of active or inactive are those of the source. No cut-off for these calls is given here.

Legend:
Mus musculus [1] = experiment: Antialzheimer activity in double transgenic B6C3 mouse overexpressing APP swedish mutant and PSEN1dE9 assessed as upregulation of apoE protein expression in brain at 10 mg/kg, ip administered 3 times per week measured after 6 weeks by Western blot analysis relative to vehicle-treated control; format: functional; details: route intraperitoneal
HepG2 [2] = experiment: Induction of cytoplasmic lipid accumulation in human HepG2 cells at 10 uM after 4 days by oil red O staining-based light microscopic analysis; format: cell-based; details: hepg2, 96 h
[3] = target: T1, Oxysterols receptor LXR-beta (Mus musculus) (UniProt Q60644); experiment: Agonist activity at LXRbeta in mouse BV2 cells assessed as degradation of intracellular soluble amyloid beta42 at 0.1 uM preincubated for 18 hrs followed by soluble amyloid beta42 addition measured after 24 hrs by ELISA relative to vehicle-treated control; format: cell-based; details: BV-2
T1 sequence (whole entry): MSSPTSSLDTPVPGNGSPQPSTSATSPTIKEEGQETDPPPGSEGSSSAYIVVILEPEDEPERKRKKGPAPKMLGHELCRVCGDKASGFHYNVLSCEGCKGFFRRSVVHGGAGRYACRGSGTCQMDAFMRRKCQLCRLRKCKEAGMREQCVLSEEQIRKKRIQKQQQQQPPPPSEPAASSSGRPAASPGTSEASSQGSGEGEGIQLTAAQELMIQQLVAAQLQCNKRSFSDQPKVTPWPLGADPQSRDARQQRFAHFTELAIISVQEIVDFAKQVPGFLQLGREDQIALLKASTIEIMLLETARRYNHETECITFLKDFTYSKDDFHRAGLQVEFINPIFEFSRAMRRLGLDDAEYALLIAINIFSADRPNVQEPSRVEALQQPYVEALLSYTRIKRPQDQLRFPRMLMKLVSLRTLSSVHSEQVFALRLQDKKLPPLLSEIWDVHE

[4] = target: T1, Oxysterols receptor LXR-beta (Mus musculus); experiment: Agonist activity at LXRbeta in mouse BV2 cells assessed as degradation of intracellular soluble amyloid beta42 at 1 uM preincubated for 18 hrs followed by soluble amyloid beta42 addition measured after 24 hrs by ELISA relative to vehicle-treated control; format: cell-based; details: BV-2
HepG2 [5] = experiment: Cytotoxicity against human HepG2 cells assessed as inhibition of cell viability at 50 uM after 48 hrs by SRB assay relative to vehicle-treated control; format: cell-based; details: hepg2, 48 h, 50 µM
Mus musculus [6] = experiment: (§1) Antialzheimer activity in double transgenic B6C3 mouse overexpressing APP swedish mutant and PSEN1dE9 assessed as reduction of amyloid beta42 plaque load in hippocampus at 10 mg/kg, ip administered 3 times per week measured after 6 weeks by OC staining-based fluorescence microscopic analysis relative to vehicle-treated control; format: functional; parameters: scale not given: the % may be the effect or the level left; details: route intraperitoneal
HEK293 = experiment: Cytotoxicity against HEK293 cells assessed as inhibition of cell viability at 50 uM after 48 hrs by SRB assay relative to vehicle-treated control; format: cell-based; details: human, hek293, 48 h
[7] = target: T1, Oxysterols receptor LXR-beta (Mus musculus); experiment: Agonist activity at LXRbeta in mouse BV2 cells assessed as upregulation of apoE protein expression at 0.1 uM after 48 hrs by Western blot analysis relative to vehicle-treated control; format: cell-based; details: BV-2
RAW264.7 = experiment: Cytotoxicity against mouse RAW264.7 cells assessed as inhibition of cell viability at 50 uM after 48 hrs by SRB assay relative to vehicle-treated control; format: cell-based; details: raw264.7, 48 h
[8] = target: T1, Oxysterols receptor LXR-beta (Mus musculus); experiment: Agonist activity at LXRbeta in mouse BV2 cells assessed as degradation of intracellular soluble amyloid beta42 at 0.01 uM preincubated for 18 hrs followed by soluble amyloid beta42 addition measured after 24 hrs by ELISA relative to vehicle-treated control; format: cell-based; details: BV-2
[9] = target: T2, Oxysterols receptor LXR-alpha (Homo sapiens) (UniProt Q13133); experiment: Agonist activity at human LXRalpha transfected in HEK293 cells at 0.1 uM after 24 hrs by luciferase reporter gene assay relative to vehicle-treated control; format: cell-based
T2 sequence (whole entry): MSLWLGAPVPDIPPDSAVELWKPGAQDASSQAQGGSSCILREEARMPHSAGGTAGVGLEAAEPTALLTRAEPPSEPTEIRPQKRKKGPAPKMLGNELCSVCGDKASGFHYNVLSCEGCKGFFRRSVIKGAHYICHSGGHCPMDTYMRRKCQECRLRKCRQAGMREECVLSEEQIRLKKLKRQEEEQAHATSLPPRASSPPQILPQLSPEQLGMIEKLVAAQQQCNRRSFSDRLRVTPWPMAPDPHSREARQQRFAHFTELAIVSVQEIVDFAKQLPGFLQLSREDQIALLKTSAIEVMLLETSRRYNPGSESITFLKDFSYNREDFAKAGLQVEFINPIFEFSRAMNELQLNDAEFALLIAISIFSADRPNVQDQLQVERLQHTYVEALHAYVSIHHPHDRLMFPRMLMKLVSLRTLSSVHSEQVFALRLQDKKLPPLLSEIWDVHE

Mus musculus [10] = experiment: as §1, with “cortex” for “hippocampus”; format: functional; parameters: scale not given: the % may be the effect or the level left; details: route intraperitoneal
[11] = target: T1, Oxysterols receptor LXR-beta (Mus musculus); experiment: Agonist activity at LXRbeta in mouse BV2 cells assessed as upregulation of ABCA1 protein expression at 1 uM after 12 to 48 hrs by Western blot analysis; format: cell-based; details: BV-2
HepG2 [12] = experiment: Induction of intracellular triglyceride accumulation in human HepG2 cells at 10 uM after 4 days relative to vehicle-treated control; format: cell-based; details: hepg2, 96 h
[13] = target: T1, Oxysterols receptor LXR-beta (Mus musculus); experiment: Agonist activity at LXRbeta in mouse RAW264.7 cells assessed as induction of ABCA1 promoter activation at 1 uM after 24 hrs by Dual-Glo luciferase reporter gene assay relative to vehicle-treated control; format: cell-based
HepG2 [14] = experiment: Induction of intracellular triglyceride accumulation in human HepG2 cells at 1 uM after 4 days relative to vehicle-treated control; format: cell-based; details: hepg2, 96 h
[15] = target: T1, Oxysterols receptor LXR-beta (Mus musculus); experiment: Agonist activity at LXRbeta in mouse BV2 cells assessed as upregulation of apoE protein expression at 1 uM after 48 hrs by Western blot analysis relative to vehicle-treated control; format: cell-based; details: BV-2
BV-2 = experiment: Upregulation of IDE mRNA expression in mouse BV2 cells at 0.01 to 1 uM after 18 hrs by real-time qPCR analysis; format: functional, cell-based
[16] = target: T1, Oxysterols receptor LXR-beta (Mus musculus); experiment: Agonist activity at LXRbeta in mouse BV2 cells assessed as degradation of intracellular amyloid beta42 preincubated for 18 hrs followed by soluble amyloid beta42 addition measured after 24 hrs by ELISA; format: cell-based; details: BV-2
[17] = target: T1, Oxysterols receptor LXR-beta (Mus musculus); experiment: Agonist activity at LXRbeta in mouse BV2 cells assessed as upregulation of apoE protein expression at 10 uM after 48 hrs by Western blot analysis relative to vehicle-treated control; format: cell-based; details: BV-2
Mus musculus [18] = experiment: Antialzheimer activity in double transgenic B6C3 mouse overexpressing APP swedish mutant and PSEN1dE9 assessed as upregulation of ABCA1 protein expression in brain at 10 mg/kg, ip administered 3 times per week measured after 6 weeks by Western blot analysis relative to vehicle-treated control; format: functional; details: route intraperitoneal
Mus musculus [19] = experiment: as §1, with “beta” for “beta42”, “brain” for “hippocampus”, “thioflavin S” for “OC”; format: functional, organism-based; parameters: dose 10 mg/kg
[20] = target: T1, Oxysterols receptor LXR-beta (Mus musculus); experiment: Agonist activity at LXRbeta in mouse RAW264.7 cells assessed as induction of ABCA1 promoter activation after 24 hrs by Dual-Glo luciferase reporter gene assay; format: cell-based
[21] = target: T1, Oxysterols receptor LXR-beta (Mus musculus); experiment: Agonist activity at LXRbeta in mouse RAW264.7 cells assessed as upregulation of ABCA1 protein expression after 18 to 48 hrs by Western blot analysis; format: cell-based

Activity [3]: 52% | Activity [4]: 59% | fold change (FC) [7]: 1.6 | Activity [8]: 29% | fold change (FC) [9]: 0.99 | Activity [11]: Active | Activity (HepG2 [12]): -0.3% | fold change (FC) [13]: 2.09 | Activity (HepG2 [14]): -0.3% | fold change (FC) [15]: 1.9 | Activity [16]: Dose-dependent effect | fold change (FC) [17]: 2.7 | Activity [20]: Dose-dependent effect | Activity [21]: Dose-dependent effect
SMILES: Cc1ccc(/C=C/C(=O)c2ccc(N)cc2O)o1
fold change (FC) (Mus musculus [1]): 1.6 | Activity (HepG2 [2]): Toxic | Activity (HepG2 [5]): Non-toxic | Activity (Mus musculus [6]): 28% | Activity (HEK293): Non-toxic | Activity (RAW264.7): Non-toxic | Activity (Mus musculus [10]): 30% | Activity (BV-2): inactive | fold change (FC) (Mus musculus [18]): 2.3 | Activity (Mus musculus [19]): Active
